Consider one compound from patent publication US9585854B2, “N-acetyl-L-cysteine for use in in vitro fertilization” (IASOMAI AB, priority 2012, dated 2017).

Molecules are shown by their SMILES. Several values for one entry are separate records, joined by “and”; a condition that tells them apart may be missing. Equal values may be shown once.

The subject of data set [1] is 1-cell rabbit embryos.
From the text: (§1) The eventual occurrence of NAC embryotoxicity was preliminary tested.
(§2) To verify the embryotoxicity of NAC the application of two embryotoxicity techniques—rabbit embryo bioassay and human sperm motility bioassay—were used.
For data set [2], the system named is cancer cells of epithelial origin. The conditions noted are these: cited from earlier work.
Another data set relates to pregnancy. Put plainly: pulsed oral administration of NAC to patients. In kind it is in vivo, human. The conditions noted are these: three consecutive days a week. As to the method: Below is the result from giving pulsed administration of NAC to 15 patients, 8 of which became pregnant. According to this, NAC was administered to patients per os for 3 months or more according to the following schedule: 600 mg three times a day, three consecutive days a week. […] 7, no. 4, pp. 355-359, 2007.]; (2) splitting the total dose in 3 is simple for patients and, with reference to the known NAC pharmacokinetics [[…] and […], “Pharmacokinetic and pharmacodynamic studies of N-acetylcysteine, a potential chemopreventive agent during a phase I trial,” Cancer Epidemiology Biomarkers and Prevention, vol. 4, no. 3, pp. 245-251, 1995.], grants a nearly constant plasma level of the drug; (3) the four-day medication-free interval provides a washout period useful to limit the reported decrease of NAC plasma level observed during prolonged treatments. According to examples described in the specification 15 patients were treated with pulsed administration of N-acetyl-L-cysteine for use in IVF orally in a dose of 600 mg three times a day during three consecutive days followed by four days of interruption during 3 months or more.

Data set [3] has as its system 1-cell rabbit embryos. Nature of the data set: rabbit embryo bioassay (embryotoxicity).
From the text: as §1, §2
The test system of another data set is embryo implantation. Put plainly: embryo implantation in oxytocin-treated mice. The class given is in vivo. The conditions noted are these: oxytocin-treated mice. The text has this: Indeed, in mice, NAC was confirmed to support embryo implantation. In the animal model, embryo implantation rate was decreased when the mice were given oxytocin.
In mice, NAC was confirmed to support embryo implantation. In the animal model, embryo implantation rate was decreased when the mice were given oxytocin.

For data set [4] the following is noted: thiol residue easily oxidized by oxygen, light and other radiations; cited from earlier work.
For data set [5] the following is noted: cited from earlier work.
The subject of a further data set is Jurkat cells. Nature of the data set: Cell adhesion assay of Jurkat cells on fibronectin. In kind it is cell-based, human. Particulars: NAC 5 mM for 2 h pretreatment, eosin Y absorbance 540 nm, vs control. The method, then: Cell Adhesion Assay. Seven μg/ml of human fibronectin (Sigma Aldrich Chem Co) were saturated with 2% bovine serum albumin (BSA) for 30 min at 37° C. and washed twice with phosphate buffered saline (PBS). Jurkat cells were then seeded onto the wells for 2 h at 37° C.; then, nonadherent cells were aspirated, and the wells were rinsed with PBS. Adhering cells were fixed overnight with 2% formaldehyde and stained with eosin Y for 30 min. Eosin Y was then extracted by addition of a mixture of 1% of glacial acetic acid and 50% ethanol, and absorbance was measured at 540 nm.
NAC increases the adhesions of Jurkat cells on fibronectin. The adhesion assay was performed by using control or NAC (5 mM for 2 h)-treated Jurkat cells. […] Cell adhesion was then quantitated by staining the cells attached to junction protein-coated plates with eosin Y and reading the absorbance in a microplate reader.
Cells were solubilized and eosin Y and absorbance was quantitated at 540 nm. No antibody, illustrated by black bars; anti-VLA-4 (10 ng/ml) illustrated by grey bars; and anti-VLA-4 (10 μg/ml) illustrated by white bars. Data are means+/−SE(n=3).*, P less than 0.01 vs. control. From FIG. 1 it can be concluded that NAC treatment increases adhesion (junction protein molecules).

The subject of data set [6] is normal human epidermal keratinocytes. Put plainly: micro array gene expression analysis (Affymetrix GeneChip). The class given is cell-based. The conditions noted are these: vs untreated. As to the method: The present experiments were carried out to elucidate if NAC treatment influence integrin and fibronectin gene expression by gene expression analysis using the Affymetrix GeneChip platform.
A micro array based gene expression analysis of the normal human epidermal keratinocytes was performed 1 and 12 hours after addition of NAC, compared to untreated (i.e. control samples at the same time points). Data obtained from GeneChip analysis were processed using the RNA analysis approach and samples were normalized to their corresponding controls. Filtering was done based on two criteria (p-value <0.1 and >1.5 fold up- or >0.5 down-regulation) for each time point. The labelling and hybridisation was done in duplicate.

A further data set has as its system uterine contractions. Nature of the data set: clinical case: intravenous NAC prior to embryo transfer. In kind it is in vivo, human. The conditions noted are these: patient, NAC 50 mg/kg intravenous infusion 60 min. The method, then:
The very first case of clinical application of NAC prior to embryo transfer was recently documented. NAC was administered in a concentration of 50 mg/kg to a patient who had previously undergone five embryo transfers involving a total number of 8 good-quality embryos. Immediately before embryo transfer, the presence of increased uterine contractile activity was confirmed by ultrasound. NAC 50 mg/kg body weight was administered in intravenous infusion for 60 min. Embryo transfer was carried out 60 min from the end of the 60 min NAC 50 mg/kg body weight administration. Both before connecting the infusion and directly before embryo transfer, a transvaginal sagittal scan recording was performed.

The next data set has as its system IVF. Put plainly: NAC administration in connection with IVF treatment (clinical outcome). In kind it is in vivo, human. The text has this: To date, NAC has not been considered a drug in fertility treatment although it has been used for oral treatment of endometrioses as described in EP 2305238. In that study no conclusions about pregnancies were made. To the contrary when being treated for endometriosis it was not expected that any pregnancies could occur. […] This was one of the reasons why the present inventors started investigating whether NAC could be used in connection with IVF.
Already from the start of IVF it has been a problem that the clinical outcome in IVF treatment is low.
The composition of the present invention, comprising NAC for the treatment of IVF according to one embodiment to be administered intravenously at a dose between approximately 50 and 150 mg/kg/day.
In still another embodiment of the present invention the composition comprises NAC to be administered orally at a dose of approximately 30-45 mg/kg/day.

On to `CC(=O)N[C@@H](CS)C(=O)O` [NAC, N-acetyl-L-cysteine], for which the “survival of 1-cell rabbit embryos” value with 1-cell rabbit embryos [1] is “not to affect the survival of 1-cell rabbit embryos”. Further, the “effect on proliferation of cancer cells of epithelial origin” value in [2] (Cell Death and Differentiation 2005) is on record as “marked antiproliferative effect”. The “cell-cell and cell-substratum adhesion complexes” value in [2] (NAC-treated cancer cells) is reported as “considerable increase”. For the same compound, in the data set on pregnancy (individual patients 1-8, pulsed oral NAC 600 mg three times a day), the “pregnancy after months post NAC treatment” value was 14 months and 3 months and 1 months (2×) and 19 months and 8 months and 6 months and 0 months. In addition, the “patients who became pregnant” value in the data set on pregnancy (of 15 patients, per os 600 mg three times a day, 3 months or more) was 8. The “percentage of hatched rabbit blastocysts” value in the data set with 1-cell rabbit embryos [3] is on record as “not to decrease the percentage of hatched rabbit blastocysts”. For the same compound, the embryotoxic effect result in the data set with 1-cell rabbit embryos [3] (concentrations up to 50-fold therapeutic blood concentrations) is recorded as “failed to detect an embryotoxic effect”. The implantation rates result in the data set with embryo implantation is listed as “dose-dependently restored”. Also, the stability entry in [4] is listed as “not a stable molecule”. In addition, the “NAC plasma level after prolonged treatments” value in data set [5] (Pendyala and Creaven 1995) is listed as “decrease in NAC plasma level”. Besides, in data set [5] (in vivo), the “diffusion in tissues and cells” value was “freely diffuses in almost all tissues and cells”; the “peak concentration in plasma reached in” value is on record as “about one”. Moreover, the half-life entry in [5] (plasma) is listed as “about three”. In addition, the “augmentation of cell adhesion” value with Jurkat cells is reported as around 35%. In addition, in [6] (1 hr after NAC treatment), the “integrin alpha 2 gene expression” value was “up-regulated”. In data set [6] (12 hours after NAC), the fibronectin gene expression result is on record as “upregulated”. The “amplitude of uterine contractions” value in the data set on uterine contractions was “apparent decrease in their amplitude”. Also, in the data set with uterine contractions (from 10 contractions per 3 min before infusion, transvaginal scan), the “uterine contractions directly before embryo transfer” value was “five”. The live births entry in the data set with IVF (NAC preferably a few days prior to IVF treatment) is on record as “higher percentage of live births”. The “effectiveness in IVF” value with IVF (intravenous, lower limit approximately 50 mg/kg/day) was “effective in IVF”. For the same compound, the IVF outcome with IVF (one person who had taken NAC orally for endometriosis, two previous IVF trials failed) is recorded as “successful IVF treatment”. Besides, the “effect in connection with IVF” value in the data set on IVF (oral, approximately 30-45 mg/kg/day) is “give effect in connection with IVF”.
